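Grown in 96-well plates, cells were treated for 48 hours with each compound at five concentrations. Insufficient inhibition: endpoint recorded as highest concentration tested. The concentration for 50% growth inhibition is given as GI50.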 Activity calls are given as the source filed them. Rule as the data show it: active = GI50 up to about 1.1 µM and inactive = higher.
Assays:
Assay in all cases: growth of human tumour cells (NCI), 48 h
UACC-62 = tested on: UACC-62
HCT-15 = tested on: HCT-15
OVCAR-4 = tested on: OVCAR-4
HOP-92 = tested on: HOP-92
UACC-257 = tested on: UACC-257
NCI-H522 = tested on: NCI-H522
CAKI-1 = tested on: CAKI-1
RPMI-8226 = tested on: RPMI-8226
IGROV-1 = tested on: IGROV-1
COLO 205 = tested on: COLO 205
M19-MEL = tested on: M19-MEL
SF-539 = tested on: SF-539
K562 = tested on: K562
M14 = tested on: M14
SK-MEL-5 = tested on: SK-MEL-5
SK-OV-3 = tested on: SK-OV-3
SK-MEL-28 = tested on: SK-MEL-28
KM12 = tested on: KM12
SNB-78 = tested on: SNB-78
LOX IMVI = tested on: LOX IMVI
A549 = tested on: A549
DMS-114 = tested on: DMS-114
XF498 = tested on: XF498
SNB-75 = tested on: SNB-75
NCI-H23 = tested on: NCI-H23
EKVX = tested on: EKVX
DMS-273 = tested on: DMS-273
MOLT-4 = tested on: MOLT-4
SW-620 = tested on: SW-620
HL-60 = tested on: HL-60
LXFL 529 = tested on: LXFL 529
OVCAR-8 = tested on: OVCAR-8
NCI-H226 = tested on: NCI-H226
SN12C = tested on: SN12C
HCC 2998 = tested on: HCC 2998
OVCAR-3 = tested on: OVCAR-3
TK-10 = tested on: TK-10
HT-29 = tested on: HT-29
CCRF-CEM = tested on: CCRF-CEM
A498 = tested on: A498
SNB-19 = tested on: SNB-19
SF-268 = tested on: SF-268
SK-MEL-2 = tested on: SK-MEL-2
HOP-18 = tested on: HOP-18
OVCAR-5 = tested on: OVCAR-5
HOP-62 = tested on: HOP-62
KM-20L2 = tested on: KM-20L2
NCI-H460 = tested on: NCI-H460
U-251 = tested on: U-251
HCT-116 = tested on: HCT-116
RXF 393 = tested on: RXF 393
DLD-1 = tested on: DLD-1
786-0 = tested on: 786-0
Malme-3M = tested on: Malme-3M
ACHN = tested on: ACHN
SF-295 = tested on: SF-295

SMILES: CCN(CC)CSc1nc2ccccc2s1
- GI50 (UACC-62): > 100 µM (inactive)
- GI50 (HCT-15): > 100 µM
- GI50 (OVCAR-4): > 100 µM (inactive)
- GI50 (HOP-92): > 100 µM (inactive)
- GI50 (UACC-257): > 100 µM (inactive)
- GI50 (NCI-H522): > 100 µM (inactive)
- GI50 (CAKI-1): > 100 µM (inactive)
- GI50 (RPMI-8226): > 100 µM (inactive)
- GI50 (IGROV-1): > 100 µM (inactive)
- GI50 (COLO 205): > 100 µM (inactive)
- GI50 (M19-MEL): > 100 µM (inactive)
- GI50 (SF-539): > 100 µM (inactive)
- GI50 (K562): > 100 µM (inactive)
- GI50 (M14): > 100 µM (inactive)
- GI50 (SK-MEL-5): > 100 µM (inactive)
- GI50 (SK-OV-3): > 100 µM (inactive)
- GI50 (SK-MEL-28): > 100 µM (inactive)
- GI50 (KM12): > 100 µM (inactive)
- GI50 (SNB-78): > 100 µM (inactive)
- GI50 (LOX IMVI): > 100 µM (inactive)
- GI50 (A549): > 100 µM (inactive)
- GI50 (DMS-114): > 100 µM (inactive)
- GI50 (XF498): > 100 µM (inactive)
- GI50 (SNB-75): > 100 µM (inactive)
- GI50 (NCI-H23): > 100 µM (inactive)
- GI50 (EKVX): > 100 µM (inactive)
- GI50 (DMS-273): > 100 µM (inactive)
- GI50 (MOLT-4): > 100 µM (inactive)
- GI50 (SW-620): > 100 µM (inactive)
- GI50 (HL-60): > 100 µM (inactive)
- GI50 (LXFL 529): > 100 µM (inactive)
- GI50 (OVCAR-8): > 100 µM (inactive)
- GI50 (NCI-H226): > 100 µM (inactive)
- GI50 (SN12C): > 100 µM (inactive)
- GI50 (HCC 2998): > 100 µM (inactive)
- GI50 (OVCAR-3): > 100 µM (inactive)
- GI50 (TK-10): > 100 µM (inactive)
- GI50 (HT-29): > 100 µM (inactive)
- GI50 (CCRF-CEM): > 100 µM (inactive)

SMILES: CCOC(=O)[C-]([N+]#N)[Si](C)(C)C
- GI50 (UACC-62): 72.4 µM (inactive)
- GI50 (HCT-15): 27.5 µM
- GI50 (OVCAR-4): > 100 µM (inactive)
- GI50 (A498): > 100 µM (inactive)
- GI50 (HOP-92): > 100 µM (inactive)
- GI50 (SNB-19): > 100 µM (inactive)
- GI50 (UACC-257): 59.3 µM (inactive)
- GI50 (SF-268): 21.6 µM (inactive)
- GI50 (SK-MEL-2): > 100 µM (inactive)
- GI50 (CAKI-1): > 100 µM (inactive)
- GI50 (HOP-18): > 100 µM (inactive)
- GI50 (IGROV-1): > 100 µM (inactive)
- GI50 (COLO 205): > 100 µM (inactive)
- GI50 (M19-MEL): > 100 µM (inactive)
- GI50 (SF-539): > 100 µM (inactive)
- GI50 (OVCAR-5): > 100 µM (inactive)
- GI50 (HOP-62): 20.5 µM (inactive)
- GI50 (KM-20L2): > 100 µM (inactive)
- GI50 (SK-MEL-5): > 100 µM (inactive)
- GI50 (SK-MEL-28): 18.5 µM (inactive)
- GI50 (KM12): > 100 µM (inactive)
- GI50 (SNB-78): > 100 µM (inactive)
- GI50 (LOX IMVI): 85.9 µM (inactive)
- GI50 (A549): > 100 µM (inactive)
- GI50 (DMS-114): > 100 µM (inactive)
- GI50 (NCI-H460): > 100 µM (inactive)
- GI50 (XF498): 56.9 µM (inactive)
- GI50 (SNB-75): > 100 µM (inactive)
- GI50 (U-251): 24.2 µM (inactive)
- GI50 (NCI-H23): 75.5 µM (inactive)
- GI50 (HCT-116): 53.1 µM (inactive)
- GI50 (DMS-273): > 100 µM (inactive)
- GI50 (RXF 393): > 100 µM (inactive)
- GI50 (SW-620): > 100 µM (inactive)
- GI50 (DLD-1): > 100 µM (inactive)
- GI50 (OVCAR-8): > 100 µM (inactive)
- GI50 (786-0): > 100 µM (inactive)
- GI50 (SN12C): > 100 µM (inactive)
- GI50 (HCC 2998): > 100 µM (inactive)
- GI50 (Malme-3M): > 100 µM (inactive)
- GI50 (OVCAR-3): > 100 µM (inactive)
- GI50 (TK-10): > 100 µM (inactive)
- GI50 (ACHN): > 100 µM (inactive)
- GI50 (SF-295): > 100 µM (inactive)
- GI50 (HT-29): > 100 µM (inactive)

From ChEMBL document CHEMBL1201862, “PubChem BioAssay data set” (2004)
